Results as given in patent publication US7179842B2, “Method of treating non-insulin dependent diabetes mellitus with phytanic acid derivatives” (priority 2000, dated 2007).
Like-named read-outs stand apart in the source and are kept apart here.

How the values were obtained:
[1] = system: GLUT-1 mRNA; assay: Quantitative RT-PCR (TaqMan) mRNA level, GLUT-1; assay type: cell-based, rat; details: for GLUT-1 mRNA induction / GLUT-1 mRNA levels: 24 h
Protocol: (§1) The data is presented as means of 3 independent experiments.
(§2) For the quantification of the expression levels the novel Real Time Quantitative TaqMan™ PCR using the multiplex method was employed. Total RNA was isolated using the RNeasy kit from QIAGEN (Valencia, Calif.). The first strand cDNA was synthesized in a 20 μl reaction from 5 μg total RNA by reverse transcription with the. […] Subsequently the cDNA was diluted to 500 μl. In a 50 μl reaction, 10 μl cDNA was amplified in the 7700 Sequence Detector (PE Biosystems, Foster City, Calif.), using the Universal Master Mix (PE Biosystems, Foster City, Calif.) and the following PCR-primers and TaqMan™-probes at the concentrations of 300 nM and 100 nM, respectively, and PCR-primers and TaqMan™-probes for the reference gene β-actin at concentration of 50 nM.
(§3) The induction of gene expression, and corresponding error bars were calculated from 3 independent experiments using the ΔCT method according to the manufacturer's protocol.

[2] = system: GLUT-2 mRNA; assay: Quantitative RT-PCR (TaqMan) mRNA level, GLUT-2; assay type: cell-based, rat; details: 24 h
Protocol: as §1, §2, §3

[3] = system: glucokinase mRNA; assay: Quantitative RT-PCR (TaqMan) mRNA level, glucokinase; assay type: cell-based, rat; details: 100 μM, 24 h
Protocol: as §1, §2, §3

[4] = system: PEPCK mRNA; assay: Quantitative RT-PCR (TaqMan) mRNA level, PEPCK; assay type: cell-based, rat
Protocol: as §1, §2, §3

[5] = system: Rat primary hepatocytes; assay: [3H]-2-deoxy-D-glucose uptake in hepatocytes; assay type: cell-based; details: 24 h treatment
Protocol: Rat primary hepatocytes were cultured for 24 h at 37° C. in media containing phytanic acid 10 μM (□) and 100 μM (▪), palmitic acid 100 μM ( ), DHA 100 μM (∘), and control (▴). Subsequently [3H]-2-deoxy-D-glucose uptake was measured after 15, 30, and 60 min incubation period.
Cells cultured in 24-well plates were treated for 24 h with phytanic acid, palmitic acid, and DHA. Subsequently the medium was removed and cells were washed twice with pre-warmed phosphate buffered saline, pH 7.4 (PBS). 500 μl of pre-warmed glucose reaction mixture (0.01 mM 2-deoxy-D-glucose and 3 μCi/ml [3H]-2-deoxy-D-glucose in PBS) was then added to the cells. The reaction mixture was further incubated at 37° C. for different time intervals. The reaction was terminated by aspirating the reaction mixture and washing the cells twice with ice cold 10 mM 2-deoxy-D-glucose in PBS. Cells were then solubilized with 500 μl of 1% sodium dodecyl sulfate, 400 μl of which was transferred to scintillation vials containing 5 ml Quickszint 1 (Zinsser Analytic, Frankfurt, Germany). Radioactivity was counted in a Tri-Carb 2500 (Packard, Meriden, Conn.) liquid scintillation counter. The remaining lysate was used for protein content determination with the BCA Protein Assay Reagent Kit (Pierce, Rockford, Ill.). Data are expressed as means±SD from 3 independent experiments.

[6] = system: cytochrome P450/4A1 (Cyp4al) mRNA; assay: Quantitative RT-PCR (TaqMan) mRNA level, Cyp4a1; assay type: cell-based, rat; details: 10 μM for 24 h
Protocol: (§4) The mRNA levels were determined with the TaqMan™ methodology after a 24 h stimulation of the rat primary hepatocytes with 10 μM phytanic acid, palmitic acid, and DHA. mRNA levels were normalized to β-actin expression and expressed relative to untreated cells. The data is presented as means of 3 independent experiments. Error bars were calculated as described in Example 3.
(§5) For the quantification of the expression levels the novel Real Time Quantitative TaqMan™ PCR using the multiplex method was employed. Total RNA was isolated using the RNeasy kit from QIAGEN (Valencia, Calif.). The first strand cDNA was synthesized in a 20 μl reaction from 5 μg total RNA by reverse transcription with the. SuperScriptII™ Reverse Transcriptase Kit (Life Technologies Inc., Coralville Iowa) and 100 ng random hexamers, as previously described (Zimmermann, U., Fluehmann, B., Born, W., Fischer, J., A. & Muff, R. (1997) Coexistence of Novel Amylin-Binding Sites With Calcitonin Receptors in Human Breast Carcinoma Mcf-7 Cells, Journal of Endocrinology. 155, 423–431). Subsequently the cDNA was diluted to 500 μl. […]
as §3

[7] = system: HMG-CoA reductase mRNA; assay: Quantitative RT-PCR (TaqMan) mRNA level, HMG-CoA reductase; assay type: cell-based, rat; details: 10 μM for 24 h
Protocol: as §4, §5, §3

[8] = system: lipoprotein lipase (LPL) mRNA; assay: Quantitative RT-PCR (TaqMan) mRNA level, LPL; assay type: cell-based, rat; details: 10 μM for 24 h
Protocol: as §4, §5, §3

[9] = system: low-density lipoprotein receptor (LDLR) mRNA; assay: Quantitative RT-PCR (TaqMan) mRNA level, LDLR; assay type: cell-based, rat; details: 10 μM for 24 h
Protocol: as §4, §5, §3

[10] = system: tumor necrosis factor α (TNFα) mRNA; assay: Quantitative RT-PCR (TaqMan) mRNA level, TNFα; assay type: cell-based, rat; details: 10 μM for 24 h
Protocol: as §4, §5, §3

[11] = system: apolipoprotein A1 (ApoA1) mRNA; assay: Quantitative RT-PCR (TaqMan) mRNA level, ApoA1; assay type: cell-based, rat; details: 10 μM for 24 h
Protocol: as §4, §5, §3

[12] = system: apolipoprotein E (ApoE) mRNA; assay: Quantitative RT-PCR (TaqMan) mRNA level, ApoE; assay type: cell-based, rat; details: 10 μM for 24 h
Protocol: as §4, §5, §3

[13] = system: liver fatty acid binding protein (LFABP) mRNA; assay: Quantitative RT-PCR (TaqMan) mRNA level, LFABP; assay type: cell-based, rat; details: 10 μM for 24 h
Protocol: as §4, §5, §3

[14] = system: plasma insulin; assay: In vivo study, plasma insulin in rats fed phytanic acid; design: species or system male Wistar rats; details: 150 and 750 mg phytanic acid/kg feed, day 7, vs control chow
Protocol: Male Wistar rats were adapted for two days and then fed with the respective substance. The values are means±SD (see Example 4).
To determine the beneficial effect of phytanic acid on plasma insulin levels, a study was performed using male Wistar rats. The animals were adapted for two days and then fed with control chow, 150 mg phytanic acid/kg feed (P-10), and 750 mg phytanic acid/kg feed (P-50), respectively. Blood samples were taken at day 7 and the insulin concentration in the plasma was measured (FIG. 7).

[15] = system: Rat primary hepatocytes; details: 24 h, 1 mM
[16] = system: RXR; details: read-out: RXR receptor binding IC50; cited from earlier work
[17] = system: RXR; details: cited from earlier work
[18] = system: all-trans-retinoic acid receptor (RAR); details: cited from earlier work
[19] = molecular target: T1, PPARα (Homo sapiens, UniProt Q07869); details: read-out: Kd-value as PPARα ligand; cited from earlier work
T1 sequence (Q07869 1-468): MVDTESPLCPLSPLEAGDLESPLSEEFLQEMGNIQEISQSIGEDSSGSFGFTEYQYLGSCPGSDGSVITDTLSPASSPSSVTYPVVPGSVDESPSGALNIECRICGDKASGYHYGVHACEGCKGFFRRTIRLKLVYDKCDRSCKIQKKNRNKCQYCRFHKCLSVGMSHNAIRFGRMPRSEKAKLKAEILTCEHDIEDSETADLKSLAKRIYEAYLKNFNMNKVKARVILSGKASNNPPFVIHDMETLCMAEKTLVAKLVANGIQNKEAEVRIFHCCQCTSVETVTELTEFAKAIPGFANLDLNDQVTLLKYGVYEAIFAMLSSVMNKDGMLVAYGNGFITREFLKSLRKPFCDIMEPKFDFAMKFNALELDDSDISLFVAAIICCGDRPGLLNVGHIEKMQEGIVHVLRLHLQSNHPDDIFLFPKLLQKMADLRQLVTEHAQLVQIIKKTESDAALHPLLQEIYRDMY

[20] = adult mice, 0.5% phytol diet for 21 days; cited from earlier work
[21] = cited from earlier work
[22] = concentrations lower than 100 μM

For `CCCCCCCCCCCCCCCC(=O)O` [palmitic acid, reference compound], the “GLUT-1 mRNA induction” value ([1]; 100 μM) was 2.4 (1.7–3.3) fold, the “GLUT-1 mRNA levels” value [1, 22] was “did not affect” and the “GLUT-2 mRNA levels” value ([2]; low concentrations) was “minor induction”. The “transcription of glucokinase mRNA” value [3] was “reduced” and the “transcription of PEPCK mRNA” value ([4]; 100 μM, 24 h) was “reduced”.

For `CC(C)CCCC(C)CCCC(C)CCCC(C)CC(=O)O` (stereo not shown) [phytanic acid], the “2-deoxy-D-glucose uptake vs control, palmitic acid or DHA” value ([5]; 100 μM, uptake over 15, 30, 60 min) was “substantial increase”, the 2-deoxy-D-glucose uptake [5, 22] was “no measurable effect” and the “GLUT-1 mRNA induction” value ([1]; 100 μM) was 2.2 (1.6–2.9) fold. For the same molecule, the “GLUT-1 mRNA maximal induction” value ([1]; 100 μM, after 6 hours, normalized to β-actin, relative to untreated) was 5.6 (5.1–6.2) fold, the “GLUT-1 mRNA levels” value [1, 22] was “did not affect” and the “GLUT-2 mRNA maximal induction” value ([2]; 100 μM) was 3.2 (2.7–3.8) fold. The “GLUT-2 mRNA induction” value ([2]; 0.01–100 μM) was “at least 2 fold”, the “glucokinase mRNA induction” value [3] was 3.0 (2.5–3.4) fold and the PEPCK transcript ([4]; 10 μM for 24 h) was “increase”. For the same molecule, the “PEPCK mRNA induction” value ([4]; 100 μM, 24 h) was 2.5 (1.7–3.6) fold, the “PEPCK mRNA maximal induction” value ([4]; 100 μM, after 6 hours) was 4.4 (3.4–5.7) fold and the Cyp4a1 transcript [6] was “increase”. The HMG-CoA reductase transcript [7] was “increase”, the LPL transcript [8] was “increase” and the LDLR transcript [9] was “increase”. For the same molecule, the TNFα transcript [10] was “increase”, the “ApoA1 mRNA” value [11] was “downregulated” and the “ApoE mRNA” value [12] was “downregulated”. The “LFABP mRNA levels” value [13] was “remained unaffected”, the plasma insulin [14] was “could reduce the plasma insulin” and the “cells survived compared to untreated” value [15] was 54±17%. The IC50 [16] was 2300 nM, the EC50 ([17]; read-out: RXR transcriptional effects EC50) was 3000 nM and the “activity on retinoid receptors (RXR vs RAR)” value [18] was “restricted to RXR receptors”. The Kd [19] was 10 nM.

For `C/C(=C\CO)CCC[C@H](C)CCC[C@H](C)CCCC(C)C` [phytol], the cholesterol serum levels [20] is given as “remained unaffected”, the “decrease in triglyceride serum levels” value [20] is given as 40% and the “intestinal absorption from dietary chlorophyll” value ([21]; rat and man) is given as “minimal”. For the same molecule, the “absorption compared with phytanic acid” value ([21]; rats) was “much less well adsorbed than phytanic acid”.

For `CC1=C(/C=C/C(C)=C\C=C\C(C)=C\C(=O)O)C(C)(C)CCC1` [9-cis-retinoic acid, reference compound], the EC50 ([17]; read-out: RXR activation EC50) is given as […] and the EC50 ([18]; read-out: RAR activation EC50) is given as 13 nM.

For `CC/C=C\C/C=C\C/C=C\C/C=C\C/C=C\C/C=C\CCC(=O)O` [DHA, docohexaenoic acid, reference compound], the “GLUT-1 mRNA levels” value ([1]; concentrations up to 100 μM) was “did not affect”, the “GLUT-2 mRNA levels” value [2] was “did not affect” and the “transcription of glucokinase mRNA” value [3] was “reduced”. The “transcription of PEPCK mRNA” value ([4]; 100 μM, 24 h) was “reduced”.
